Results published in the supplement of paper PMC9763283.

What was measured:
Assay in all cases: area under growth-rate inhibition curve (AUC GRI) (dimensionless (GR-based AUC)); higher = less growth inhibition
Settings in all cases: exposure time: 72 h; concentrations: 0.1, 1, 10 uM
SKBR3-LTR = system: SKBR3-LTR
In short: (§1)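 The area under the growth-rate inhibition curve was measured in six breast cancer cell line models, covering triple-negative lines and HER2+ lines, both parental and resistant to a two-drug combination. Cells were exposed to compound at 0.1, 1 or 10 µM for 72 h, fixed in 4% paraformaldehyde, and nuclei were stained with Hoechst 33342 or DAPI for imaging and counting. Day 0 plates, untreated Day 3 plates and DMSO controls served to correct growth across 2 biological replicates.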

MDA-MB-231 = system: MDA-MB-231
In short: as §1

BT474-P = system: BT474-P
In short: as §1

SKBR3-P = system: SKBR3-P
In short: as §1

MDA-MB-468 = system: MDA-MB-468
In short: as §1

BT474-LTR = system: BT474-LTR
In short: as §1

| Structure (SMILES) | area under growth-rate inhibition curve (SKBR3-LTR) | area under growth-rate inhibition curve (MDA-MB-231) | area under growth-rate inhibition curve (BT474-P) | area under growth-rate inhibition curve (SKBR3-P) | area under growth-rate inhibition curve (MDA-MB-468) | area under growth-rate inhibition curve (BT474-LTR) |
| --- | --- | --- | --- | --- | --- | --- |
| CC(=O)CCCCn1c(=O)c2c(ncn2C)n(C)c1=O [Pentoxifylline] | 1.05 | 1.04 | 1 | 1.02 | 1.04 | 1.03 |
| N#Cc1ccccc1-c1cc(-c2ccccn2)cn(-c2ccccc2)c1=O [Perampanel] | 1.05 | 1.03 | 1.01 | 1.03 | 1.02 | 1.05 |
| CCCN1C[C@H](CSC)C[C@@H]2c3cccc4[nH]cc(c34)C[C@H]21.CS(=O)(=O)O [Pergolide mesylate] | 1.02 | 1.02 | 1.02 | 0.978 | 1.02 | 1.06 |
| OCCN1CCN(CCCN2c3ccccc3Sc3ccc(Cl)cc32)CC1 [Perphenazine] | 1.04 | 1.04 | 0.983 | 1.01 | 1.03 | 1.03 |
| CC(COc1ccccc1)N(CCCl)Cc1ccccc1.[Cl-].[H+] (stereo not drawn) [Phenoxybenzamine HCl] | 1.01 | 0.984 | 0.997 | 1.01 | 1 | 0.978 |
| CS(=O)(=O)O.Cc1ccc(N(CC2=NCCN2)c2cccc(O)c2)cc1 [Phentolamine Mesylate] | 1.04 | 1.01 | 0.997 | 0.983 | 0.964 | 1.05 |
| CNC[C@H](O)c1cccc(O)c1.Cl [Phenylephrine HCl] | 1.02 | 0.996 | 1.01 | 0.985 | 1.03 | 1.09 |
| CC(C)COc1ccc(CNC(=O)N(Cc2ccc(F)cc2)C2CCN(C)CC2)cc1 [Pimavanserin] | 0.876 | 0.867 | 0.873 | 0.856 | 0.887 | 0.936 |
| O=c1[nH]c2ccccc2n1C1CCN(CCCC(c2ccc(F)cc2)c2ccc(F)cc2)CC1 [Pimozide] | 1.01 | 0.991 | 0.974 | 0.972 | 0.959 | 0.991 |
| CCC/N=C1\S/C(=C\c2ccc(OC[C@H](O)CO)c(Cl)c2)C(=O)N1c1ccccc1C [Ponesimod] | 1.02 | 1.01 | 0.996 | 0.989 | 1.04 | 1.04 |
| CCCN[C@H]1CCc2nc(N)sc2C1 [Pramipexole] | 1.08 | 1.03 | 1.07 | 1.01 | 1.05 | 1.1 |
| CC(=O)Oc1cc2c(s1)CCN(C(C(=O)C1CC1)c1ccccc1F)C2 (stereo not drawn) [Prasugrel] | 1.03 | 1.03 | 1.05 | 1.02 | 1.04 | 1.13 |
| CC(=O)[C@H]1CC[C@H]2[C@@H]3CC=C4C[C@@H](O)CC[C@]4(C)[C@H]3CC[C@]12C [Pregnenolone] | 1.05 | 1.03 | 1.02 | 0.999 | 1.02 | 1.09 |
| CCC1(c2ccccc2)C(=O)NCNC1=O [Primidone] | 1.06 | 1.04 | 0.982 | 1.03 | 1.03 | 1.02 |
| CC(C)NCC(O)COc1cccc2ccccc12.[Cl-].[H+] (stereo not drawn) [Propranolol HCl] | 1.06 | 1.04 | 1.11 | 1.01 | 1.03 | 1.1 |
| COCCCN1CCC(NC(=O)c2cc(Cl)c(N)c3c2OCC3)CC1 [Prucalopride] | 1.06 | 1.05 | 1.02 | 1.01 | 1.04 | 1.07 |
| CN(C)C(=O)Oc1ccc[n+](C)c1.[Br-] [Pyridostigmine Bromide] | 1.04 | 1.05 | 1.04 | 0.997 | 1.03 | 1.07 |
| O=C(O)C=CC(=O)O.OCCOCCN1CCN(C2=Nc3ccccc3Sc3ccccc32)CC1.OCCOCCN1CCN(C2=Nc3ccccc3Sc3ccccc32)CC1 [Quetiapine Fumarate] | 1.07 | 1.02 | 1.03 | 1.04 | 1.02 | 1.07 |
| CC(=O)SCC(Cc1ccccc1)C(=O)NCC(=O)OCc1ccccc1 (stereo not drawn) [Racecadotril] | 1.08 | 1.02 | 1.04 | 1.01 | 1.02 | 1.07 |
| O=C(c1ccc(OCCN2CCCCC2)cc1)c1c(-c2ccc(O)cc2)sc2cc(O)ccc12.[Cl-].[H+] [Raloxifene HCl] | 0.996 | 0.957 | 0.82 | 0.996 | 0.931 | 0.931 |
| CCC(=O)NCC[C@@H]1CCc2ccc3c(c21)CCO3 [Ramelteon] | 1.06 | 1.03 | 1.05 | 1.03 | 1.05 | 1.1 |
| CN/C(=C\[N+](=O)[O-])NCCSCc1ccc(CN(C)C)o1 [Ranitidine] | 1.03 | 1.01 | 1.07 | 1.03 | 1.04 | 1.1 |
| c1nc2nc(Nc3ccc(N4CCOCC4)cc3)nc(NC3CCCCC3)c2[nH]1 [Reversine] | 0.677 | 0.689 | 0.648 | 0.662 | 0.643 | 0.65 |
| Cc1c(C(=O)NN2CCCCC2)nn(-c2ccc(Cl)cc2Cl)c1-c1ccc(Cl)cc1 [Rimonabant] | 1.04 | 1 | 0.979 | 0.953 | 0.987 | 1.07 |
| CC(NCCc1ccc(O)cc1)C(O)c1ccc(O)cc1.[Cl-].[H+] (stereo not drawn) [Ritodrine HCl] | 1.11 | 0.975 | 1.07 | 1.02 | 1.01 | 1.1 |
| CCN(C)C(=O)Oc1cccc(C(C)N(C)C)c1.O=C(O)C(O)C(O)C(=O)O (stereo not drawn) [Rivastigmine Tartrate] | 1.06 | 1.03 | 1.06 | 1.02 | 1.04 | 1.07 |
| C=CC[N+]1(C2CC3C4CCC5CC(O)C(N6CCOCC6)CC5(C)C4CCC3(C)C2OC(C)=O)CCCC1.[Br-] (stereo not drawn) [Rocuronium Bromide] | 1.05 | 1.02 | 1.07 | 1.03 | 1.03 | 1.1 |

| Structure (SMILES) | area under growth-rate inhibition curve (SKBR3-LTR) | area under growth-rate inhibition curve (MDA-MB-231) | area under growth-rate inhibition curve (BT474-P) | area under growth-rate inhibition curve (SKBR3-P) | area under growth-rate inhibition curve (MDA-MB-468) | area under growth-rate inhibition curve (BT474-LTR) |
| --- | --- | --- | --- | --- | --- | --- |
| O=C(Nc1c(Cl)cncc1Cl)c1ccc(OC(F)F)c(OCC2CC2)c1 [Roflumilast] | 1.07 | 0.966 | 1.03 | 1.01 | 1.04 | 1.05 |
| CCCN(CCC)CCc1cccc2c1CC(=O)N2 [Ropinirole] | 1.05 | 1.03 | 0.994 | 1.02 | 1.06 | 1.05 |
| CCCN(CCc1cccs1)[C@H]1CCc2c(O)cccc2C1 [Rotigotine] | 1.08 | 1.03 | 1.05 | 0.984 | 0.992 | 1.08 |
| COc1cc2c(cc1OC)C1Cc3ccc(OC)c(OC)c3CN1CC2 (stereo not drawn) [Rotundine] | 1.04 | 0.997 | 1.03 | 0.992 | 1.02 | 1.11 |
| CC(=O)OCC(=O)NCCCOc1cccc(CN2CCCCC2)c1.[Cl-].[H+] [Roxatidine Acetate HCl] | 1.04 | 1.03 | 1.04 | 0.991 | 1.02 | 1.07 |
| Cc1cncc(CN2CCC(=C3c4ccc(Cl)cc4CCc4cccnc43)CC2)c1.O=C(O)/C=C/C(=O)O [Rupatadine Fumarate] | 1.03 | 1.05 | 0.974 | 0.966 | 0.972 | 1.05 |
| Cc1nn(-c2ccccc2)c(C)c1C=NN1CCN(Cc2ccccc2)CC1 [SANT-1] | 1.05 | 0.992 | 0.98 | 1.04 | 1.02 | 1.08 |
| O=C(O)c1ccc2ccccc2c1O.OCc1cc(C(O)CNCCCCCCOCCCCc2ccccc2)ccc1O (stereo not drawn) [Salmeterol Xinafoate] | 0.993 | 0.832 | 0.905 | 0.95 | 0.875 | 0.877 |
| CN1C2CC(O)CC1C1OC12 (stereo not drawn) [Scopine] | 1.05 | 1.07 | 1.05 | 1.03 | 1.05 | 1.08 |
| Br.CN1C2CC(OC(=O)C(CO)c3ccccc3)CC1C1OC12 (stereo not drawn) [Scopolamine HBr] | 1.09 | 1.03 | 1.05 | 1.01 | 1.04 | 1.08 |
| CN[C@@H]1CC[C@@H](c2ccc(Cl)c(Cl)c2)c2ccccc21.[Cl-].[H+] [Sertraline HCl] | 0.981 | 0.918 | 0.935 | 0.963 | 0.907 | 0.972 |
| C[C@H](Cc1cc2c(c(C(N)=O)c1)N(CCCO)CC2)NCCOc1ccccc1OCC(F)(F)F [Silodosin] | 1.1 | 1.04 | 1.06 | 1.03 | 1.05 | 1.1 |
| Cc1cc2c(cc1CC(=O)c1sccc1S(=O)(=O)[N-]c1onc(C)c1Cl)OCO2.[Na+] [Sitaxentan sodium] | 1.07 | 1.04 | 1.06 | 1.04 | 1.04 | 1.08 |
| CCOc1ccc(Cc2cc([C@@H]3O[C@H](SC)[C@@H](O)[C@H](O)[C@H]3O)ccc2Cl)cc1 [Sotagliflozin (LX4211)] | 1.1 | 1.01 | 1.02 | 1.02 | 0.996 | 1.06 |
| CC(C)NCC(O)c1ccc(NS(C)(=O)=O)cc1.[Cl-].[H+] (stereo not drawn) [Sotalol] | 1.07 | 1.03 | 1.05 | 1.03 | 1.05 | 1.09 |
| CNS(=O)(=O)Cc1ccc2[nH]cc(CCN(C)C)c2c1.O=C(O)CCC(=O)O [Sumatriptan Succinate] | 1.06 | 1.02 | 1.05 | 1.04 | 1.03 | 1.1 |
| Cc1ccc(-n2nccn2)c(C(=O)N2CCN(c3nc4cc(Cl)ccc4o3)CCC2C)c1 (stereo not drawn) [Suvorexant (MK-4305)] | 1.04 | 1.02 | 1.02 | 0.995 | 0.955 | 1.05 |
| CNCC(O)c1ccc(O)cc1.Cl (stereo not drawn) [Synephrine HCl] | 1.07 | 0.993 | 1.05 | 1.01 | 1.05 | 1.11 |
| CNCC(O)c1ccc(O)cc1 (stereo not drawn) [Synephrine] | 1.07 | 0.993 | 1.05 | 1.03 | 1.05 | 1.06 |
| CC/C(=C(\c1ccccc1)c1ccc(OCCN(C)C)cc1)c1ccccc1.O=C(O)CC(O)(CC(=O)O)C(=O)O [Tamoxifen Citrate] | 0.982 | 0.958 | 0.851 | 0.938 | 0.952 | 0.896 |
| CCC(c1cccc(O)c1)C(C)CN(C)C (stereo not drawn) [Tapentadol] | 1 | 0.986 | 1.01 | 1.01 | 1 | 1.01 |
| COc1cc2nc(N3CCN(C(=O)C4CCCO4)CC3)nc(N)c2cc1OC.O.[Cl-].[H+] (stereo not drawn) [Terazosin HCl] | 1.1 | 1.02 | 1.02 | 1.03 | 1.04 | 1.09 |
| COc1cc2nc(N3CCN(C(=O)C4CCCO4)CC3)nc(N)c2cc1OC.[Cl-].[H+] (stereo not drawn) [Terazosin] | 1.01 | 0.999 | 1.02 | 1.03 | 0.998 | 1.07 |
| [Cl-].[H+].c1ccc2c(c1)CCCC2C1=NCCN1 (stereo not drawn) [Tetrahydrozoline HCl] | 1.02 | 1.01 | 1.03 | 1.02 | 1.03 | 1.07 |
| CN1c2ccccc2C(NCCCCCCC(=O)[O-])c2ccc(Cl)cc2S1(=O)=O.[Na+] (stereo not drawn) [Tianeptine sodium] | 1.02 | 1.02 | 1.06 | 1.01 | 1.05 | 1.09 |
| CCCSc1nc(NC2CC2c2ccc(F)c(F)c2)c2nnn(C3CC(OCCO)C(O)C3O)c2n1 (stereo not drawn) [Ticagrelor] | 0.968 | 0.975 | 0.922 | 0.995 | 0.975 | 0.984 |
